From patent US20250195501A1, “CELL ENTRY-MODULATING AGENTS AND USES THEREFOR” (priority 2020, published 2025)
Like-named read-outs stand apart in the source and are kept apart here.

Assays:
SARS-CoV-2 = test: microbe, parasite or virus in culture; assay type: cell-based; settings: for SI (selectivity index, CC50/IC50): Vero-E6 cells; for IC50: read-out: IC50 Mean ± SD (SARS-CoV-2 infection)
Vero-E6 cells = settings: for CC50: read-out: CC50 Mean ± SD, Vero-E6 cells, 24 h at 37° C., no virus, alamarBlue
[1] = molecular target: T1, ACE2:RBD-mimic1 peptide interaction (Homo sapiens, UniProt Q9BYF1); test: Direct competition SPR: compound vs RBD-mimic1 peptide binding to human ACE2; settings: compound and RBD-mimic1 peptide flowed at 1 μM over human ACE2
T1 construct: purchased R&D Systems and Assay Matrix (ACE2); Mimotopes (peptide)
Method: Peptide alone, compound alone and the competition. Percentage competition is calculated by the reduction in final peptide binding divided by the difference between the peptide and the compound alone.
All SPR sensorgrams and results plots were analyzed with Biacore S200 Evaluation Software (GE Healthcare Life Sciences).

T1 sequence (Q9BYF1 18-740 limits assumed): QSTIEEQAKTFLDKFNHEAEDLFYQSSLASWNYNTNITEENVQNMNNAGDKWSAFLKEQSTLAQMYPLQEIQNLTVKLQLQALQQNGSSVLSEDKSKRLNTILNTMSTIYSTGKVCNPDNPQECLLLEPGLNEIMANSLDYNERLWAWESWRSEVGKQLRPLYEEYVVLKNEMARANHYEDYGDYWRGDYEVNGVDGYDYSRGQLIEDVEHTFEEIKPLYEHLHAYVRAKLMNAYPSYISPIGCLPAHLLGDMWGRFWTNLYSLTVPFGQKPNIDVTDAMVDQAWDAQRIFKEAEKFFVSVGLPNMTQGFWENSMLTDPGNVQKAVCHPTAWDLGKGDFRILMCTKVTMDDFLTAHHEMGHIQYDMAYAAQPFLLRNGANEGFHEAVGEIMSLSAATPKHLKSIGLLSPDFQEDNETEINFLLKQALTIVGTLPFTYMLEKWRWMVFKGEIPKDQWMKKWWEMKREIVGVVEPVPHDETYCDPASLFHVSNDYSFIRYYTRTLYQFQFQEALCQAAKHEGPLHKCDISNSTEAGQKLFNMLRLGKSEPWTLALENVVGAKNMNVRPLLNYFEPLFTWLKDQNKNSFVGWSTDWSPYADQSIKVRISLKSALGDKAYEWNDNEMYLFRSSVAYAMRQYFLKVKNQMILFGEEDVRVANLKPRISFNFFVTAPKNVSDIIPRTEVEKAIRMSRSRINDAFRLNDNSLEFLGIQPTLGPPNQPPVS

Compound	SI (selectivity index, CC50/IC50) (SARS-CoV-2)	IC50 (SARS-CoV-2) [µM]	toxicity toward Vero-E6 cells in the infection assay (Vero-E6 cells)	CC50 (Vero-E6 cells) [mM]	1:1 Competition between compound vs RBD-mimic1 peptide @ 1 μM (block: Yes/Partial) [1]	1:1 Competition between compound vs RBD-mimic1 peptide @ 1 μM (percentage competition) [1]	IC50 (SARS-CoV-2; Severe acute respiratory syndrome coronavirus 2, Vero C1008, 24 h) [µM]
Cc1cc(-c2ccc(/N=N/c3ccc4c(S(=O)(=O)[O-])cc(S(=O)(=O)[O-])c(N)c4c3O)c(C)c2)ccc1/N=N/c1ccc2c(S(=O)(=O)[O-])cc(S(=O)(=O)[O-])c(N)c2c1O.[Na+].[Na+].[Na+].[Na+] [Evans Blue]	>35.6	28.1 ± 1.2	low toxicity	> 1	completely block and Yes	~100%	–
CCc1c2c(nc3ccc(OC(=O)N4CCC(N5CCCCC5)CC4)cc13)-c1cc3c(c(=O)n1C2)COC(=O)[C@]3(O)CC [Irinotecan]	–	–	toxicity was observed	–	Yes	(100% ± 6.36)	–
Cc1ccc(C(=O)Nc2ccc(S(=O)(=O)O)c3cc(S(=O)(=O)O)cc(S(=O)(=O)O)c23)cc1NC(=O)c1cccc(NC(=O)Nc2cccc(C(=O)Nc3cc(C(=O)Nc4ccc(S(=O)(=O)O)c5cc(S(=O)(=O)O)cc(S(=O)(=O)O)c45)ccc3C)c2)c1 [Suramin]	>21.6	–	–	> 1	–	–	28.1 ± 1.2
COC[C@H]1C[C@@H](c2nc(-c3ccc4c(c3)COc3cc5c(ccc6nc([C@@H]7CC[C@H](C)N7C(=O)[C@@H](NC(=O)OC)C(C)C)[nH]c65)cc3-4)c[nH]2)N(C(=O)[C@H](NC(=O)OC)c2ccccc2)C1 [Velpatasvir]	–	–	toxicity was observed	–	Partial	–	–
CC1(C)CCC(CN2CCN(c3ccc(C(=O)NS(=O)(=O)c4ccc(NCC5CCOCC5)c([N+](=O)[O-])c4)c(Oc4cnc5[nH]ccc5c4)c3)CC2)=C(c2ccc(Cl)cc2)C1 [Venetoclax]	–	–	toxicity was observed	–	Partial	–	–
Ledipasvir	–	–	toxicity was observed	–	Partial	–	–
